Measured values reported in ChEMBL document CHEMBL3885861, “Open TG-GATES”.

Organism: Rattus norvegicus
Test: Open TG-GATES - Regimen: Single
Type: toxicity, organism-based, Sprague-Dawley
Set-up: regimen Single, gender Male, age 6 weeks
Settings: in vivo, ip, 300 mg/kg, route intraperitoneal injection, dose level Middle; for APTT / Bas / Eos / Fbg / Hb / Ht / Lym / MCH / MCHC / MCV / Mono / Neu / PT / Plat / RBC / Ret / WBC: tissue Blood; for KIDNEY_L / KIDNEY_R / KIDNEY_TOTAL: tissue Kidney; for LIVER: tissue Liver; for A/G / ALP / ALT / AST / BUN / CRE / Ca / Cl / DBIL / GLC / IP / K / LDH / Na / PL / RALB / TBIL / TC / TG / TP / gamma-GTP: tissue Plasma

Structure (SMILES): N[C@H]1C(O)O[C@H](CO)[C@@H](O)[C@@H]1O (some centres not stated) [GLUCOSAMINE]
- TERMINAL_BW (3 h): 188.6 g
- APTT (3 h): 17.5 s
- Bas (3 h): 0.4%
- Eos (3 h): 0.4%
- Fbg (3 h): 247.4 mg/dL
- Hb (3 h): 12.6 g/dL
- Ht (3 h): 38.9%
- Lym (3 h): 67%
- MCH (3 h): 21 pg
- MCHC (3 h): 32.3%
- MCV (3 h): 64.9 fL
- Mono (3 h): 4%
- Neu (3 h): 27%
- PT (3 h): 16.2 s
- Plat (3 h): 112.1 x10_4/uL
- RBC (3 h): 600.6 x10_4/ul
- Ret (3 h): 9.4%
- WBC (3 h): 96.7 x10_2/uL
- KIDNEY_L (3 h): 0.9 g
- KIDNEY_R (3 h): 0.9 g
- KIDNEY_TOTAL (3 h): 1.8 g
- LIVER (3 h): 8.4 g
- A/G (3 h): 0.9
- ALP (3 h): 1578.8 IU/L
- ALT (3 h): 43.4 IU/L
- AST (3 h): 82 IU/L
- BUN (3 h): 10.6 mg/dL
- CRE (3 h): 0.2 mg/dL
- Ca (3 h): 10.5 mg/dL
- Cl (3 h): 107.8 meq/L
- DBIL (3 h): 0.012 mg/dL
- GLC (3 h): 165.8 mg/dL
- IP (3 h): 8.9 mg/dL
- K (3 h): 4 meq/L
- LDH (3 h): 55.6 IU/L
- Na (3 h): 142.2 meq/L
- PL (3 h): 136.4 mg/dL
- RALB (3 h): 2.3 g/dL
- TBIL (3 h): 0.052 mg/dL
- TC (3 h): 76.6 mg/dL
- TG (3 h): 34.8 mg/dL
- TP (3 h): 5 g/dL
- gamma-GTP (3 h): 1 IU/L
- TERMINAL_BW (6 h): 188.8 g
- APTT (6 h): 20.1 s
- Bas (6 h): 0.2%
- Eos (6 h): 1%
- Fbg (6 h): 234.4 mg/dL
- Hb (6 h): 13.6 g/dL
- Ht (6 h): 41.5%
- Lym (6 h): 63%
- MCH (6 h): 21.3 pg
- MCHC (6 h): 32.7%
- MCV (6 h): 65.2 fL
- Mono (6 h): 2.6%
- Neu (6 h): 32.6%
- PT (6 h): 18.9 s
- Plat (6 h): 107.5 x10_4/uL
- RBC (6 h): 636.8 x10_4/ul
- Ret (6 h): 9%
- WBC (6 h): 50.8 x10_2/uL
- KIDNEY_L (6 h): 0.8 g
- KIDNEY_R (6 h): 0.8 g
- KIDNEY_TOTAL (6 h): 1.6 g
- LIVER (6 h): 8.4 g
- A/G (6 h): 0.9
- ALP (6 h): 1576.2 IU/L
- ALT (6 h): 145.8 IU/L
- AST (6 h): 213.4 IU/L
- BUN (6 h): 13.8 mg/dL
- CRE (6 h): 0.2 mg/dL
- Ca (6 h): 10.2 mg/dL
- Cl (6 h): 107.2 meq/L
- DBIL (6 h): 0.01 mg/dL
- GLC (6 h): 164.4 mg/dL
- IP (6 h): 9 mg/dL
- K (6 h): 3.7 meq/L
- LDH (6 h): 212.6 IU/L
- Na (6 h): 142.4 meq/L
- PL (6 h): 129.8 mg/dL
- RALB (6 h): 2.3 g/dL
- TBIL (6 h): 0.054 mg/dL
- TC (6 h): 70 mg/dL
- TG (6 h): 17.8 mg/dL
- TP (6 h): 4.9 g/dL
- gamma-GTP (6 h): 1 IU/L
- TERMINAL_BW (9 h): 183.2 g
- APTT (9 h): 18.5 s
- Bas (9 h): 0%
- Eos (9 h): 0.6%
- Fbg (9 h): 307.6 mg/dL
- Hb (9 h): 12.7 g/dL
- Ht (9 h): 39%
- Lym (9 h): 73%
- MCH (9 h): 21.1 pg
- MCHC (9 h): 32.6%
- MCV (9 h): 64.7 fL
- Mono (9 h): 1.8%
- Neu (9 h): 23.6%
- PT (9 h): 17.2 s
- Plat (9 h): 109.8 x10_4/uL
- RBC (9 h): 602.8 x10_4/ul
- Ret (9 h): 9.2%
- WBC (9 h): 55.1 x10_2/uL
- KIDNEY_L (9 h): 0.9 g
- KIDNEY_R (9 h): 0.9 g
- KIDNEY_TOTAL (9 h): 1.7 g
- LIVER (9 h): 7.3 g
- A/G (9 h): 0.9
- ALP (9 h): 1464 IU/L
- ALT (9 h): 40.6 IU/L
- AST (9 h): 84.4 IU/L
- BUN (9 h): 7.6 mg/dL
- CRE (9 h): 0.1 mg/dL
- Ca (9 h): 10.3 mg/dL
- Cl (9 h): 107.4 meq/L
- DBIL (9 h): 0.012 mg/dL
- GLC (9 h): 162.2 mg/dL
- IP (9 h): 9.9 mg/dL
- K (9 h): 3.8 meq/L
- LDH (9 h): 54.6 IU/L
- Na (9 h): 142 meq/L
- PL (9 h): 117.8 mg/dL
- RALB (9 h): 2.4 g/dL
- TBIL (9 h): 0.06 mg/dL
- TC (9 h): 63.4 mg/dL
- TG (9 h): 23.6 mg/dL
- TP (9 h): 5.2 g/dL
- gamma-GTP (9 h): 0.8 IU/L
- TERMINAL_BW (24 h): 190.9 g
- APTT (24 h): 19.9 s
- Bas (24 h): 0.6%
- Eos (24 h): 1.4%
- Fbg (24 h): 205.8 mg/dL
- Hb (24 h): 14.1 g/dL
- Ht (24 h): 43.4%
- Lym (24 h): 70%
- MCH (24 h): 20.9 pg
- MCHC (24 h): 32.5%
- MCV (24 h): 64.3 fL
- Mono (24 h): 3.8%
- Neu (24 h): 23%
- PT (24 h): 25.4 s
- Plat (24 h): 102.4 x10_4/uL
- RBC (24 h): 675.6 x10_4/ul
- Ret (24 h): 7.9%
- WBC (24 h): 79.5 x10_2/uL
- KIDNEY_L (24 h): 0.8 g
- KIDNEY_R (24 h): 0.9 g
- KIDNEY_TOTAL (24 h): 1.7 g
- LIVER (24 h): 8.1 g
- A/G (24 h): 0.9
- ALP (24 h): 2031.4 IU/L
- ALT (24 h): 214.6 IU/L
- AST (24 h): 341.6 IU/L
- BUN (24 h): 13.4 mg/dL
- CRE (24 h): 0.2 mg/dL
- Ca (24 h): 10.3 mg/dL
- Cl (24 h): 107 meq/L
- DBIL (24 h): 0.068 mg/dL
- GLC (24 h): 165.4 mg/dL
- IP (24 h): 9.1 mg/dL
- K (24 h): 4.3 meq/L
- LDH (24 h): 168 IU/L
- Na (24 h): 143.8 meq/L
- PL (24 h): 118.2 mg/dL
- RALB (24 h): 2.4 g/dL
- TBIL (24 h): 0.1 mg/dL
- TC (24 h): 57.2 mg/dL
- TG (24 h): 42 mg/dL
- TP (24 h): 5.2 g/dL
- gamma-GTP (24 h): 1 IU/L
